Test results: ChEMBL document CHEMBL1671626, “In vitro profiling of ceftaroline against a collection of recent bacterial clinical isolates from across the United States” (2008)

Assays:
Format in all cases: functional
Enterobacter cloacae [1] = test: Antibacterial activity against ceftazidime-susceptible Enterobacter cloacae assessed as susceptible isolates by CLSI M7-A7 broth microdilution method
Enterobacteriaceae [2] = test: Antibacterial activity against ceftazidime-nonsusceptible Enterobacteriaceae assessed as susceptible isolates by CLSI M7-A7 broth microdilution method
Klebsiella pneumoniae [3] = test: Antibacterial activity against ceftazidime-nonsusceptible Klebsiella pneumoniae assessed as resistant isolates by CLSI M7-A7 broth microdilution method
Escherichia coli [4] = test: Antibacterial activity against ceftazidime-nonsusceptible Escherichia coli assessed as resistant isolates by CLSI M7-A7 broth microdilution method
Morganella morganii [5] = test: Antibacterial activity against ceftazidime-susceptible Morganella morganii assessed as resistant isolates by CLSI M7-A7 broth microdilution method
Enterobacter cloacae [6] = test: Antibacterial activity against ceftazidime-susceptible Enterobacter cloacae by CLSI M7-A7 broth microdilution method
Escherichia coli [7] = test: Antibacterial activity against ceftazidime-susceptible Escherichia coli by CLSI M7-A7 broth microdilution method
Morganella morganii [8] = test: Antibacterial activity against ceftazidime-susceptible Morganella morganii assessed as susceptible isolates by CLSI M7-A7 broth microdilution method
Morganella morganii [9] = test: Antibacterial activity against ceftazidime-susceptible Morganella morganii by CLSI M7-A7 broth microdilution method
Proteus mirabilis [10] = test: Antibacterial activity against ceftazidime-susceptible Proteus mirabilis assessed as susceptible isolates by CLSI M7-A7 broth microdilution method
Haemophilus influenzae [11] = test: Antibacterial activity against beta lactamase-positive Haemophilus influenzae by CLSI M7-A7 broth microdilution method
Serratia marcescens [12] = test: Antibacterial activity against ceftazidime-susceptible Serratia marcescens assessed as resistant isolates by CLSI M7-A7 broth microdilution method
Haemophilus influenzae [13] = test: Antibacterial activity against beta lactamase-positive Haemophilus influenzae assessed as susceptible isolates by CLSI M7-A7 broth microdilution method
Enterobacteriaceae [14] = test: Antibacterial activity against ceftazidime-susceptible Enterobacteriaceae assessed as resistant isolates by CLSI M7-A7 broth microdilution method
Proteus mirabilis [15] = test: Antibacterial activity against ceftazidime-susceptible Proteus mirabilis assessed as resistant isolates by CLSI M7-A7 broth microdilution method
Providencia sp. [16] = test: Antibacterial activity against ceftazidime-susceptible Providencia sp. by CLSI M7-A7 broth microdilution method
Enterobacteriaceae [17] = test: Antibacterial activity against ceftazidime-susceptible Enterobacteriaceae assessed as susceptible isolates by CLSI M7-A7 broth microdilution method
Enterobacter cloacae [18] = test: Antibacterial activity against ceftazidime-susceptible Enterobacter cloacae assessed as resistant isolates by CLSI M7-A7 broth microdilution method
Escherichia coli [19] = test: Antibacterial activity against ceftazidime-nonsusceptible Escherichia coli assessed as susceptible isolates by CLSI M7-A7 broth microdilution method
Citrobacter freundii [20] = test: Antibacterial activity against ceftazidime-nonsusceptible Citrobacter freundii by CLSI M7-A7 broth microdilution method
Providencia sp. [21] = test: Antibacterial activity against ceftazidime-susceptible Providencia sp. assessed as susceptible isolates by CLSI M7-A7 broth microdilution method
Haemophilus influenzae [22] = test: Antibacterial activity against beta lactamase-negative Haemophilus influenzae by CLSI M7-A7 broth microdilution method
Acinetobacter [23] = test: Antibacterial activity against imipenem-susceptible Acinetobacter by CLSI M7-A7 broth microdilution method
Klebsiella pneumoniae [24] = test: Antibacterial activity against ceftazidime-susceptible Klebsiella pneumoniae by CLSI M7-A7 broth microdilution method
Providencia sp. [25] = test: Antibacterial activity against ceftazidime-susceptible Providencia sp. assessed as resistant isolates by CLSI M7-A7 broth microdilution method
Citrobacter freundii [26] = test: Antibacterial activity against ceftazidime-susceptible Citrobacter freundii assessed as resistant isolates by CLSI M7-A7 broth microdilution method
Citrobacter freundii [27] = test: Antibacterial activity against ceftazidime-susceptible Citrobacter freundii by CLSI M7-A7 broth microdilution method
Acinetobacter [28] = test: Antibacterial activity against multidrug-resistant Acinetobacter by CLSI M7-A7 broth microdilution method
Klebsiella pneumoniae [29] = test: Antibacterial activity against ceftazidime-nonsusceptible Klebsiella pneumoniae by CLSI M7-A7 broth microdilution method
Enterobacteriaceae [30] = test: Antibacterial activity against ceftazidime-nonsusceptible Enterobacteriaceae assessed as resistant isolates by CLSI M7-A7 broth microdilution method
Escherichia coli [31] = test: Antibacterial activity against ceftazidime-susceptible Escherichia coli assessed as resistant isolates by CLSI M7-A7 broth microdilution method
Enterobacteriaceae [32] = test: Antibacterial activity against ceftazidime-susceptible Enterobacteriaceae by CLSI M7-A7 broth microdilution method
Citrobacter freundii [33] = test: Antibacterial activity against ceftazidime-nonsusceptible Citrobacter freundii assessed as susceptible isolates by CLSI M7-A7 broth microdilution method
Enterobacteriaceae [34] = test: Antibacterial activity against ceftazidime-nonsusceptible Enterobacteriaceae by CLSI M7-A7 broth microdilution method
Acinetobacter [35] = test: Antibacterial activity against imipenem-susceptible Acinetobacter assessed as resistant isolates by CLSI M7-A7 broth microdilution method
Proteus mirabilis [36] = test: Antibacterial activity against ceftazidime-susceptible Proteus mirabilis by CLSI M7-A7 broth microdilution method
Escherichia coli [37] = test: Antibacterial activity against ceftazidime-susceptible Escherichia coli assessed as susceptible isolates by CLSI M7-A7 broth microdilution method
Serratia marcescens [38] = test: Antibacterial activity against ceftazidime-susceptible Serratia marcescens by CLSI M7-A7 broth microdilution method
Enterobacter cloacae [39] = test: Antibacterial activity against ceftazidime-nonsusceptible Enterobacter cloacae by CLSI M7-A7 broth microdilution method
Acinetobacter [40] = test: Antibacterial activity against multidrug-resistant Acinetobacter assessed as susceptible isolates by CLSI M7-A7 broth microdilution method
Klebsiella pneumoniae [41] = test: Antibacterial activity against ceftazidime-susceptible Klebsiella pneumoniae assessed as resistant isolates by CLSI M7-A7 broth microdilution method
Acinetobacter [42] = test: Antibacterial activity against imipenem-susceptible Acinetobacter assessed as susceptible isolates by CLSI M7-A7 broth microdilution method
Acinetobacter [43] = test: Antibacterial activity against multidrug-resistant Acinetobacter assessed as resistant isolates by CLSI M7-A7 broth microdilution method
Citrobacter freundii [44] = test: Antibacterial activity against ceftazidime-susceptible Citrobacter freundii assessed as susceptible isolates by CLSI M7-A7 broth microdilution method
Enterobacter cloacae [45] = test: Antibacterial activity against ceftazidime-nonsusceptible Enterobacter cloacae assessed as resistant isolates by CLSI M7-A7 broth microdilution method
Klebsiella pneumoniae [46] = test: Antibacterial activity against ceftazidime-nonsusceptible Klebsiella pneumoniae assessed as susceptible isolates by CLSI M7-A7 broth microdilution method
Escherichia coli [47] = test: Antibacterial activity against ceftazidime-nonsusceptible Escherichia coli by CLSI M7-A7 broth microdilution method
Citrobacter freundii [48] = test: Antibacterial activity against ceftazidime-nonsusceptible Citrobacter freundii assessed as resistant isolates by CLSI M7-A7 broth microdilution method

Work on GENTAMICIN yielded an Activity (Enterobacter cloacae [1]) of 96%, an Activity (Enterobacteriaceae [2]) of 52.3% and an Activity (Klebsiella pneumoniae [3]) of 43.9%. The Activity (Escherichia coli [4]) was 50.8%, the Activity (Morganella morganii [5]) was 8.8% and the MIC50 (Enterobacter cloacae [6]) was 0.25 µg/mL. The MIC90 (Enterobacter cloacae [6]) was 0.5 µg/mL, the MIC50 (Escherichia coli [7]) was 0.5 µg/mL and the MIC90 (Escherichia coli [7]) was 2 µg/mL. For the same sequence, the Activity (Morganella morganii [8]) was 91.2%, the MIC50 (Morganella morganii [9]) was 0.5 µg/mL and the MIC90 (Morganella morganii [9]) was 4 µg/mL. The Activity (Proteus mirabilis [10]) was 84.5%, the MIC50 (Haemophilus influenzae [11]) was 1 µg/mL and the MIC90 (Haemophilus influenzae [11]) was 2 µg/mL. For the same sequence, the Activity (Serratia marcescens [12]) was 1.7%, the Activity (Haemophilus influenzae [13]) was 0% and the Activity (Enterobacteriaceae [14]) was 5.9%. For the same sequence, the Activity (Proteus mirabilis [15]) was 8.6%, the MIC50 (Providencia sp. [16]) was 2 µg/mL and the MIC90 (Providencia sp. [16]) was > 16 µg/mL. It also gave an Activity (Enterobacteriaceae [17]) of 92.6%, an Activity (Enterobacter cloacae [18]) of 2% and an Activity (Escherichia coli [19]) of 46%. For the same sequence, the MIC50 (Citrobacter freundii [20]) was 0.5 µg/mL, the MIC90 (Citrobacter freundii [20]) was 16 µg/mL and the Activity (Providencia sp. [21]) was 74.1%. It also gave an MIC50 (Haemophilus influenzae [22]) of 1 µg/mL, an MIC90 (Haemophilus influenzae [22]) of 2 µg/mL and an MIC50 (Acinetobacter [23]) of 1 µg/mL. For the same sequence, the MIC90 (Acinetobacter [23]) was > 16 µg/mL, the MIC50 (Klebsiella pneumoniae [24]) was 0.25 µg/mL and the MIC90 (Klebsiella pneumoniae [24]) was 0.5 µg/mL. The Activity (Providencia sp. [25]) was 14.8%, the Activity (Citrobacter freundii [26]) was 10% and the MIC50 (Citrobacter freundii [27]) was 0.5 µg/mL. The MIC90 (Citrobacter freundii [27]) was 8 µg/mL, the MIC50 (Acinetobacter [28]) was > 16 µg/mL and the MIC90 (Acinetobacter [28]) was > 16 µg/mL. The MIC50 (Klebsiella pneumoniae [29]) was 8 µg/mL, the MIC90 (Klebsiella pneumoniae [29]) was > 16 µg/mL and the Activity (Enterobacteriaceae [30]) was 40.5%. The Activity (Escherichia coli [31]) was 7.5%, the MIC50 (Enterobacteriaceae [32]) was 0.5 µg/mL and the MIC90 (Enterobacteriaceae [32]) was 2 µg/mL. For the same sequence, the Activity (Citrobacter freundii [33]) was 81.8%, the MIC50 (Enterobacteriaceae [34]) was 4 µg/mL and the MIC90 (Enterobacteriaceae [34]) was > 16 µg/mL. It also gave an Activity (Acinetobacter [35]) of 21.3%, an MIC50 (Proteus mirabilis [36]) of 1 µg/mL and an MIC90 (Proteus mirabilis [36]) of 8 µg/mL. For the same sequence, the Activity (Escherichia coli [37]) was 91.9%, the MIC50 (Serratia marcescens [38]) was 0.5 µg/mL and the MIC90 (Serratia marcescens [38]) was 1 µg/mL. For the same sequence, the MIC50 (Enterobacter cloacae [39]) was 0.5 µg/mL, the MIC90 (Enterobacter cloacae [39]) was 16 µg/mL and the Activity (Acinetobacter [40]) was 18.8%. The Activity (Klebsiella pneumoniae [41]) was 1.9%, the Activity (Acinetobacter [42]) was 74.5% and the Activity (Acinetobacter [43]) was 75%. The Activity (Citrobacter freundii [44]) was 88%, the Activity (Enterobacter cloacae [45]) was 17.1% and the Activity (Klebsiella pneumoniae [46]) was 43.9%. The MIC50 (Escherichia coli [47]) was 16 µg/mL, the MIC90 (Escherichia coli [47]) was > 16 µg/mL and the Activity (Citrobacter freundii [48]) was 18.2%.
